Legend:
system Xc^− [1] = molecular target: T1, system Xc^− (Homo sapiens, UniProt Q9UPY5); test: Cystine-induced glutamate release assay; type: cell-based; set-up: endogenous in cells; host or cells: H4 cells; conditions: H4 cells, sodium-free HEPES buffer, 50 μM L-Cystine, 2 hours, Amplex Red glutamate readout; read-out: pIC50 Cystine-induced glutamate release assay (converted)
T1 sequence (Q9UPY5 1-501): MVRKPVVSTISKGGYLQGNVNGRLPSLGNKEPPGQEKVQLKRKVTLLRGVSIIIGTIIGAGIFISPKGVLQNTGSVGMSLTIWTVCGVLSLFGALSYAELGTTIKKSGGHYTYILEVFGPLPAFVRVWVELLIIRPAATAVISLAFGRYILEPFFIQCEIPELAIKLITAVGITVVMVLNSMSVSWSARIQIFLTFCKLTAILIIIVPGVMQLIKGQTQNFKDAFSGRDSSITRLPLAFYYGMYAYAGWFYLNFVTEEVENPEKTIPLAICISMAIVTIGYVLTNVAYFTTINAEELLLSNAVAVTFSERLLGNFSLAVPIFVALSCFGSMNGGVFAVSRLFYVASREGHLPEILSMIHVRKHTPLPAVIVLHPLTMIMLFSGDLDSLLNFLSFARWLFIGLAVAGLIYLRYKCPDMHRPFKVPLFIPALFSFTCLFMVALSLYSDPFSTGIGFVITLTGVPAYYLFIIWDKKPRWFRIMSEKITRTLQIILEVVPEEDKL
T1 sequence (P08195 1-529 partner): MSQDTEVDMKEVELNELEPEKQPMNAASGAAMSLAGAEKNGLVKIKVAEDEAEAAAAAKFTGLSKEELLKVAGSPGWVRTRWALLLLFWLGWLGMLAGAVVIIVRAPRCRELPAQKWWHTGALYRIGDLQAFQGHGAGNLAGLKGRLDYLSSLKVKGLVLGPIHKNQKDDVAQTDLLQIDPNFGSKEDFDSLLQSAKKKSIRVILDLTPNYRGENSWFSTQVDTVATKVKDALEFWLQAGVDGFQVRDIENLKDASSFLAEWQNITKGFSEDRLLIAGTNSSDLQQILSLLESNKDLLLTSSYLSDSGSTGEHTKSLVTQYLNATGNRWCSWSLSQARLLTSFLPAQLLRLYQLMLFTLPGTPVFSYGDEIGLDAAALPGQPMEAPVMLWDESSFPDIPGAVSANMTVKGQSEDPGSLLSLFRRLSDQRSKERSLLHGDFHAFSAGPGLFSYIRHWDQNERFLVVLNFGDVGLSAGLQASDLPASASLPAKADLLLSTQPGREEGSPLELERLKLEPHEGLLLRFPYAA
In short: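 IC50 (reported as pIC50) normalized to DMSO 1% and Erastin 50 μM controls, from Amplex Red fluorescence of glutamate exported into supernatant. H4 cells were washed into sodium-free buffer to exclude EAAT transport, then given compound with 50 μM L-cystine for 2 h in the incubator.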

system Xc^− [2] = molecular target: T1, system Xc^−; test: [^14C]L-Cystine uptake assay; type: cell-based; set-up: endogenous in cells; host or cells: H4 cells; conditions: H4 cells, sodium-free HEPES buffer, 0.5 μM L-[14C]Cystine and 4.5 μM L-Cystine, 1 hour at 37° C.; read-out: pIC50 [^14C] L-Cystine uptake assay (converted)
In short: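 Compound effect is given as pIC50, taken between controls of 1% DMSO and 50 μM Erastin. Human H4 cells were pretreated 15 min with compound in sodium-free buffer, then took up 0.5 μM [14C]cystine with 4.5 μM cold cystine for 1 hour at 37° C, read by scintillation proximity counting.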

Row | SMILES | IC50 (system Xc^− [1]) | IC50 (system Xc^− [2])
1 | COc1cc2c(c(F)n1)-c1cccnc1[C@@H](C)C(=O)N2CC(=O)Nc1ccc(C(F)(F)F)cc1 (single isomer, unassigned) [#209, Enantiomer (10S) or (10R) of 2-[3-fluoro-5-methoxy-10-methyl-9-oxo-4,8,12-triazatricyclo[9.4.0.0^2,7]pentadeca-1(15),2(7),3,5,11,13-hexaen-8-yl]-N-[4-(trifluoromethyl)phenyl]acetamide] | 15.8 to 39.8 nM | 15.8 to 39.8 nM
2 | CC1C(=O)N(CC(=O)Nc2ccc(Cl)c(F)c2)c2cc(C(F)F)ccc2-c2cccnc21 (centres unmarked) [#341, N-(4-chloro-3-fluoro-phenyl)-2-[9-(difluoromethyl)-5-methyl-6-oxo-5H-pyrido[2,3-d][1]benzazepin-7-yl]acetamide] | 15.8 to 39.8 nM | 39.8 to 100 nM
3 | O=C(CN1C(=O)C(CO)c2ncccc2-c2c(F)cc(F)cc21)Nc1ccc(Cl)c(F)c1 (single isomer, unassigned) [#381, N-(4-chloro-3-fluoro-phenyl)-2-[9,11-difluoro-5-(hydroxymethyl)-6-oxo-5H-pyrido[2,3-d][1]benzazepin-7-yl]acetamide] | 39.8 to 100 nM | 100 to 501 nM
4 | Cc1c2c(cc(=O)n1C)N(CC(=O)Nc1ccc(Cl)c(F)c1)C(=O)C(C)c1ccccc1-2 (centres unmarked) [#355, N-(4-chloro-3-fluoro-phenyl)-2-(1,2,7-trimethyl-3,6-dioxo-7H-pyrido[3,4-a][3]benzazepin-5-yl)acetamide] | 15.8 to 39.8 nM | 39.8 to 100 nM
5 | CC1C(=O)N(CC(=O)Nc2ccc(C(F)F)cc2)c2cc(N3CCC(F)(F)C3)nc(F)c2-c2cccnc21 (single isomer, unassigned) [#278, N-[4-(difluoromethyl)phenyl]-2-[5-(3,3-difluoropyrrolidin-1-yl)-3-fluoro-10-methyl-9-oxo-4,8,12-triazatricyclo[9.4.0.0^2,7]pentadeca-1(15),2,4,6,11,13-hexaen-8-yl]acetamide] | 39.8 to 100 nM | 15.8 to 39.8 nM
6 | Cc1cc2c(cn1)-c1cccnc1C(C)C(=O)N2CC(=O)Nc1ccc(F)c(Cl)c1 (single isomer, unassigned) [#253, N-(3-chloro-4-fluoro-phenyl)-2-(5,10-dimethyl-9-oxo-4,8,12-triazatricyclo[9.4.0.0^2,7]pentadeca-1(11),2(7).3,5,12,14-hexaen-8-yl)acetamide] | 39.8 to 100 nM | 39.8 to 100 nM
7 | Cc1cc2c(c(C(F)F)n1)-c1cccnc1C(C)C(=O)N2CC(=O)Nc1ccc(Cl)c(F)c1 (single isomer, unassigned) [#302, N-(4-chloro-3-fluoro-phenyl)-2-[3-(difluoromethyl)-5,10-dimethyl-9-oxo-4,8,12-triazatricyclo[9.4.0.0^2,7]pentadeca-1(15),2,4,6,11,13-hexaen-8-yl]acetamide] | 39.8 to 100 nM | 15.8 to 39.8 nM
8 | COc1nc(C)cc2c1-c1cc(C)nn1CC(=O)N2CC(=O)Nc1ccc(C(F)(F)F)cc1 [#104, 2-(14-methoxy-4,12-dimethyl-8-oxo-5,6,9,13-tetrazatricyclo[8.4.0.0^2,6]tetradeca-1(14),2,4,10,12-pentaen-9-yl)-N-[4-(trifluoromethyl)phenyl]acetamide] | 39.8 to 100 nM | 39.8 to 100 nM
9 | Cc1cc2c(c(C)n1)-c1ccccc1CC(=O)N2CC(=O)Nc1ccc(C(F)(F)F)cc1 [#27, 2-(1,3-dimethyl-6-oxo-7H-pyrido[4,3-d][3]benzazepin-5-yl)-N-[4-(trifluoromethyl)phenyl]acetamide] | 15.8 to 39.8 nM | < 15.8 nM
10 | Cc1cc2c(cn1)-c1cc(F)ccc1CC(=O)N2CC(=O)Nc1ccc(C(F)(F)F)cc1 [#33, 2-(10-fluoro-3-methyl-6-oxo-7H-pyrido[4,3-d][3]benzazepin-5-yl)-N-[4-(trifluoro-methyl)phenyl] acetamide] | 39.8 to 100 nM | 15.8 to 39.8 nM
11 | Cc1cc2c(c(F)n1)-c1cc(F)ccc1C(C)C(=O)N2CC(=O)Nc1ccc(Cl)c(F)c1 (single isomer, unassigned) [#405, N-(4-chloro-3-fluoro-phenyl)-2-[1,10-difluoro-3,7-dimethyl-6-oxo-7H-pyrido[3,4-a][3]benzazepin-5-yl]acetamide] | 15.8 to 39.8 nM | < 15.8 nM
12 | COc1nc(F)cc2c1-c1cccnc1CC(=O)N2CC(=O)Nc1ccc(C(F)(F)F)cc1 [#113, 2-(5-fluoro-3-methoxy-9-oxo-4,8,12-triazatricyclo[9.4.0.0^2,7]pentadeca-1(11),2,4,6,12,14-hexaen-8-yl)-N-[4-(trifluoromethyl)phenyl]acetamide] | 39.8 to 100 nM | < 15.8 nM
13 | O=C(CN1C(=O)Cc2ncccc2-c2c1cc(Cl)nc2Cl)Nc1ccc(C(F)(F)F)cc1 [#168, 2-(3,5-dichloro-9-oxo-4,8,12-triazatricyclo[9.4.0.0^2,7]pentadeca-1(11),2(7),3,5,12,14-hexaen-8-yl)-N-[4-(trifluoromethyl)phenyl]acetamide] | 100 to 501 nM | 15.8 to 39.8 nM
14 | CCn1c2c(cc(C)c1=O)N(CC(=O)Nc1ccc(Cl)c(F)c1)C(=O)C(C)c1ccccc1-2 (centres unmarked) [#349, N-(4-chloro-3-fluoro-phenyl)-2-(1-ethyl-3,7-dimethyl-2,6-dioxo-7H-pyrido[3,2-d][3]benzazepin-5-yl)acetamide] | 15.8 to 39.8 nM | < 15.8 nM
15 | Cc1cc2c(n(C)c1=O)-c1ccc(Cl)cc1C(C)C(=O)N2CC(=O)Nc1ccc(Cl)c(F)c1 (centres unmarked) [#181, N-(4-chloro-3-fluoro-phenyl)-2-(9-chloro-1,3,7-trimethyl-2,6-dioxo-7H-pyrido[3,2-d][3]benzazepin-5-yl)acetamide] | 15.8 to 39.8 nM | < 15.8 nM
16 | Cc1cc2c(c(C)n1)-c1ccc(F)cc1CC(=O)N2CC(=O)Nc1ccc(C(F)(F)F)cc1 [#65, 2-(9-fluoro-1,3-dimeth-yl-6-oxo-7H-pyrido[4,3-d][3]benzazepin-5-yl)-N-[4-(trifluorometh-yl)phenyl]acetamide] | 15.8 to 39.8 nM | < 15.8 nM
17 | C[C@H]1C(=O)N(CC(=O)Nc2ccc(C(F)F)cc2)c2cc(N3CC[C@H](O)C3)nc(F)c2-c2cccnc21 (single isomer, unassigned) [#279, N-[4-(difluoromethyl)phenyl]-2-[3-fluoro-5-[3-hydroxypyrrolidin-1-yl]-10-methyl-9-oxo-4,8,12-triazatricyclo[9.4.0.0^2,7]pentadeca-1(15),2,4,6,11,13-hexaen-8-yl]acetamide] | < 15.8 nM | < 15.8 nM
18 | Cc1c2c(cn(C)c1=O)N(CC(=O)Nc1ccc(C(F)F)cc1)C(=O)C(C)c1ccccc1-2 (single isomer, unassigned) [#368, N-[4-(difluoromethyl)phenyl]-2-[1,3,7-trimethyl-2,6-dioxo-7H-pyrido[4,3-a][3]benzazepin-5-yl]acetamide] | < 15.8 nM | < 15.8 nM
19 | Cc1cc2c(c(Cl)n1)-c1cccnc1C(F)C(=O)N2CC(=O)Nc1ccc(C(F)F)cc1 (single isomer, unassigned) [#223, Enantiomer (10R) or (10S) of 2-[3-chloro-10-fluoro-5-methyl-9-oxo-4,8,12-triazatricyclo[9.4.0.0^2,7]pentadeca-1(11),2(7),3,5,12,14-hexaen-8-yl]-N-[4-(difluoromethyl)phenyl]acetamide] | < 15.8 nM | 15.8 to 39.8 nM
